Values joined by “and” are separate entries in the source; they are usually repeats but may differ in a detail not shown here. Equal values may be shown once.
What was measured:
MON rhabdoid cells = experiment: Flow cytometry cell cycle analysis (polyploidy), MON; assay type: cell-based, human; details: 100nM for 3-72 hours
Protocol: Cell cycle evaluation was performed by staining the cells with PI (Thermo Fisher Scientific, USA) according to manufacturer’s instructions. […] Data was analyzed using Modfit LT from Verity Software House. Experiments were performed in triplicates.

MON MRT cells = experiment: Confluency assay (IncuCyte ZOOM), MON; assay type: cell-based, human; details: increasing concentrations starting at 31.25nM, 48 hours, p-value=0.004
Protocol: For further evaluation of the effect of the PLK4 inhibitor over tumor cell proliferation, confluency was measured over a 48 hour period. MON, BT-12, G401 and DAOY cells were plated in 96-well plates with a density of 6 x 10^4 per well. […] Confluency was monitored for 48 hours by taking phase contrast images every 2 hours and measured using an IncuCyte ZOOM system (Essen BioScience, USA). Experiments were performed in triplicates.

various kinases [1] = biological target: various kinases (Homo sapiens, UniProt P42684); experiment: biochemical; assay type: biochemical; details: ABL2 (Arg)
various kinases [2] = biological target: various kinases (Homo sapiens, UniProt P07949, V804E); experiment: biochemical; assay type: biochemical; details: kinase RET V804E; ZLYTE
various kinases [3] = biological target: various kinases (Homo sapiens, UniProt P52564); experiment: biochemical; assay type: biochemical; details: MAP2K6 (MKK6)
various kinases [4] = biological target: various kinases (Homo sapiens, UniProt P00533, G719C); experiment: biochemical; assay type: biochemical; details: EGFR (ErbB1) G719C
various kinases [5] = biological target: various kinases (Homo sapiens, UniProt Q96SB4); experiment: biochemical; assay type: biochemical; details: kinase SRPK1; ZLYTE
various kinases [6] = biological target: various kinases (Homo sapiens, UniProt P42336, E542K); experiment: Adapta Universal Kinase Assay, panel of 486 biochemical kinase assays; design: % Inhibition Average: concentration or dose not given beside the values; details: PIK3CA E542K/PIK3R1 (p110 alpha E542K/p85 alpha)
various kinases [7] = biological target: various kinases (Homo sapiens, UniProt Q99755); experiment: as above; design: % Inhibition Average: concentration or dose not given beside the values; details: PIP5K1A
various kinases [8] = biological target: various kinases (Homo sapiens, UniProt P51617); experiment: as above; design: % Inhibition Average: concentration or dose not given beside the values; details: IRAK1
various kinases [9] = biological target: various kinases (Homo sapiens, UniProt P42336); experiment: as above; design: % Inhibition Average: concentration or dose not given beside the values
various kinases [10] = biological target: various kinases (Homo sapiens, UniProt Q9UBF8); experiment: as above; design: % Inhibition Average: concentration or dose not given beside the values; details: PI4KB (PI4K beta)
various kinases [11] = biological target: various kinases (Homo sapiens, UniProt Q8TCG2); experiment: as above; design: % Inhibition Average: concentration or dose not given beside the values; details: PI4K2B (PI4K2 beta)
various kinases [12] = biological target: T1, various kinases (Homo sapiens, UniProt Q9NRA0); experiment: as above; design: % Inhibition Average: concentration or dose not given beside the values; details: kinase SPHK2; Adapta
T1 sequence (Q9NRA0 1-654): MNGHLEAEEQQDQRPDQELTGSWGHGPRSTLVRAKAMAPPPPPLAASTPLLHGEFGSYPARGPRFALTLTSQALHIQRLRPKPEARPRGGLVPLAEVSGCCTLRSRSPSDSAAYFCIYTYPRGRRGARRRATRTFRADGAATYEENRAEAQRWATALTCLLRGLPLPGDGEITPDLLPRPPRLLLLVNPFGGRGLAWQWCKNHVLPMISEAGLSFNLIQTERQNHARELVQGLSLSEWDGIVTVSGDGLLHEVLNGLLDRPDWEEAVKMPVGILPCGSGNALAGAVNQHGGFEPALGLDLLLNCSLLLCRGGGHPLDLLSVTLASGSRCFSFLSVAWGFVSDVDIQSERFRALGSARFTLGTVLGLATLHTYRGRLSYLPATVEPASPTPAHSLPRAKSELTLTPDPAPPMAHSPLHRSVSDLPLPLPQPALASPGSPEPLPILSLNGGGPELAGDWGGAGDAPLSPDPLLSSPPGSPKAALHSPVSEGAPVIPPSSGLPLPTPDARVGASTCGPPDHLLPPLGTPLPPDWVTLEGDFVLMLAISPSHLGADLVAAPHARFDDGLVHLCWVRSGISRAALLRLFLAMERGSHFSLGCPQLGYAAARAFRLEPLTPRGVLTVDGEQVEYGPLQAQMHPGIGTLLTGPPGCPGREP

various kinases [13] = biological target: various kinases (Homo sapiens, UniProt P42356); experiment: as above; design: % Inhibition Average: concentration or dose not given beside the values; details: PI4KA (PI4K alpha)
various kinases [14] = biological target: various kinases (Homo sapiens, UniProt Q14012); experiment: as above; design: % Inhibition Average: concentration or dose not given beside the values; details: CAMK1 (CaMK1)
various kinases [15] = biological target: various kinases (Homo sapiens, UniProt P48736); experiment: as above; design: % Inhibition Average: concentration or dose not given beside the values; details: PIK3CG (p110 gamma)
various kinases [16] = biological target: various kinases (Homo sapiens, UniProt Q5S007); experiment: as above; design: % Inhibition Average: concentration or dose not given beside the values
various kinases [17] = biological target: various kinases (Homo sapiens, UniProt P11802); experiment: as above; design: % Inhibition Average: concentration or dose not given beside the values
various kinases [18] = biological target: various kinases (Homo sapiens, UniProt O60331); experiment: as above; design: % Inhibition Average: concentration or dose not given beside the values; details: kinase PIP5K1C; Adapta
various kinases [19] = biological target: various kinases (Homo sapiens, UniProt Q9NYA1); experiment: as above; design: % Inhibition Average: concentration or dose not given beside the values; details: kinase SPHK1; Adapta
Sequence of various kinases (Homo sapiens, UniProt Q9NYA1) (Q9NYA1 whole entry): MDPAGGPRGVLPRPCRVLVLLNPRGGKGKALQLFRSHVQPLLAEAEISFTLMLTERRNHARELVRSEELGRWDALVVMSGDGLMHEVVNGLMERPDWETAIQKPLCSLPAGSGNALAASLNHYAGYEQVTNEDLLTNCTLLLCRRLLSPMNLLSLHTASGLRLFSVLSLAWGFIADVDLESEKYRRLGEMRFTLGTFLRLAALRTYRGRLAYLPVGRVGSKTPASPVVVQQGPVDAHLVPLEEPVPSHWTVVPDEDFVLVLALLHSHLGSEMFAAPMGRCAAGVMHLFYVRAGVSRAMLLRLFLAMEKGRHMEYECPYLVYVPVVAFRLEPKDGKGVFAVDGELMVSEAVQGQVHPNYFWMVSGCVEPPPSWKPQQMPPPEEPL

Sequence of various kinases (Homo sapiens, UniProt P11802) (P11802 whole entry): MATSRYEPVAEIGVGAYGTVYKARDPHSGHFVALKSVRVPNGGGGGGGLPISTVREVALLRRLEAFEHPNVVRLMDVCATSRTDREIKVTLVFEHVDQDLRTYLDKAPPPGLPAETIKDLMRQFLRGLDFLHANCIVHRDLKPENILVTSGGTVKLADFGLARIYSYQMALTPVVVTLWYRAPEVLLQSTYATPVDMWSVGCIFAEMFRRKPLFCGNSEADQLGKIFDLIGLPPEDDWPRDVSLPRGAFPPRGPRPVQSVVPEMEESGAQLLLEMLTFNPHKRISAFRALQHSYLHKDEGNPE
Sequence of various kinases (Homo sapiens, UniProt P42336) (P42336 whole entry): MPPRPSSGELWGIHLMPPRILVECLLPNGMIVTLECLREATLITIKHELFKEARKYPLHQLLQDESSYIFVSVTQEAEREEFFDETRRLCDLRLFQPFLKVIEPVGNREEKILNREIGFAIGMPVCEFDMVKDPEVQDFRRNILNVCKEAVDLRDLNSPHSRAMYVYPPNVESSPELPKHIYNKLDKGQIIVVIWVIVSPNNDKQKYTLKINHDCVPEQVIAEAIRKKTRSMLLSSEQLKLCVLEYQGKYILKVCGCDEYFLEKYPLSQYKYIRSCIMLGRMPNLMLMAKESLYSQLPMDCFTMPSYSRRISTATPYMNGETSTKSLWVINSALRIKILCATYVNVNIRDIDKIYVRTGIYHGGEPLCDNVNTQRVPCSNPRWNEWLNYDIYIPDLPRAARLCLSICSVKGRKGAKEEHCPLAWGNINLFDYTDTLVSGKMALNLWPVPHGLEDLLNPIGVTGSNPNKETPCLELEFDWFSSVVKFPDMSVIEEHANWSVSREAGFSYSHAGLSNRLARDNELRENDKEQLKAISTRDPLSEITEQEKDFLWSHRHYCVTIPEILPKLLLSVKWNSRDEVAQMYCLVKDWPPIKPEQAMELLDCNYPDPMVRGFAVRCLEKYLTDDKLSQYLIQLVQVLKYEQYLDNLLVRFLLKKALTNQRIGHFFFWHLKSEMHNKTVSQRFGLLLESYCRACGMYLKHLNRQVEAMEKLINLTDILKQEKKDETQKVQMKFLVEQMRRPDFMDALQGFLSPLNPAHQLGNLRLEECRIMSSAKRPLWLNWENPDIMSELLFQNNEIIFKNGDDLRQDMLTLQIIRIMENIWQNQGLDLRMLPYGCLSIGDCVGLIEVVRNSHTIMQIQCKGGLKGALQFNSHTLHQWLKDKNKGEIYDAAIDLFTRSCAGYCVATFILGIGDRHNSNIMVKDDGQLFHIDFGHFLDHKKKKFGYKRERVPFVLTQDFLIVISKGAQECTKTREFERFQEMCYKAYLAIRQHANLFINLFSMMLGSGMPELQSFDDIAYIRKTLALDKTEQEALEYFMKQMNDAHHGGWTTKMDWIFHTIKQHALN
Sequence of various kinases (Homo sapiens, UniProt Q96SB4) (Q96SB4 whole entry): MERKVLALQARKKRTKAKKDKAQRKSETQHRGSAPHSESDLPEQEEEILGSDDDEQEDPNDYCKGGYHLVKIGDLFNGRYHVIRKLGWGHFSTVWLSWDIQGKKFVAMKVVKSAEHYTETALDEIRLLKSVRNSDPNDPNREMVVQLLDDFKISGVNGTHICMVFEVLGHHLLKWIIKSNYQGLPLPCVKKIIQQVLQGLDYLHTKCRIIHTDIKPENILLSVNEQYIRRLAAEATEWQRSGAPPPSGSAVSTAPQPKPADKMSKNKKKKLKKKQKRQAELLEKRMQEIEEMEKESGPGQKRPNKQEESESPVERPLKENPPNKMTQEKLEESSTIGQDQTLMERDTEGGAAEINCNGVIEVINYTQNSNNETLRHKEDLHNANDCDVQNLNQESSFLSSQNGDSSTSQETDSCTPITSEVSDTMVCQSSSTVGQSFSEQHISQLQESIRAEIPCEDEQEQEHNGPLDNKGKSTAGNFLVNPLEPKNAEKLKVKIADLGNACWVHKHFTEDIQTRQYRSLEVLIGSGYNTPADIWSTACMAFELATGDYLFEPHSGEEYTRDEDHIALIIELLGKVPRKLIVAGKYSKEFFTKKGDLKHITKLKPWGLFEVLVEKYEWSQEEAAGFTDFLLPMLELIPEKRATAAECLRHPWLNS
Sequence of various kinases (Homo sapiens, UniProt Q5S007) (Q5S007 whole entry): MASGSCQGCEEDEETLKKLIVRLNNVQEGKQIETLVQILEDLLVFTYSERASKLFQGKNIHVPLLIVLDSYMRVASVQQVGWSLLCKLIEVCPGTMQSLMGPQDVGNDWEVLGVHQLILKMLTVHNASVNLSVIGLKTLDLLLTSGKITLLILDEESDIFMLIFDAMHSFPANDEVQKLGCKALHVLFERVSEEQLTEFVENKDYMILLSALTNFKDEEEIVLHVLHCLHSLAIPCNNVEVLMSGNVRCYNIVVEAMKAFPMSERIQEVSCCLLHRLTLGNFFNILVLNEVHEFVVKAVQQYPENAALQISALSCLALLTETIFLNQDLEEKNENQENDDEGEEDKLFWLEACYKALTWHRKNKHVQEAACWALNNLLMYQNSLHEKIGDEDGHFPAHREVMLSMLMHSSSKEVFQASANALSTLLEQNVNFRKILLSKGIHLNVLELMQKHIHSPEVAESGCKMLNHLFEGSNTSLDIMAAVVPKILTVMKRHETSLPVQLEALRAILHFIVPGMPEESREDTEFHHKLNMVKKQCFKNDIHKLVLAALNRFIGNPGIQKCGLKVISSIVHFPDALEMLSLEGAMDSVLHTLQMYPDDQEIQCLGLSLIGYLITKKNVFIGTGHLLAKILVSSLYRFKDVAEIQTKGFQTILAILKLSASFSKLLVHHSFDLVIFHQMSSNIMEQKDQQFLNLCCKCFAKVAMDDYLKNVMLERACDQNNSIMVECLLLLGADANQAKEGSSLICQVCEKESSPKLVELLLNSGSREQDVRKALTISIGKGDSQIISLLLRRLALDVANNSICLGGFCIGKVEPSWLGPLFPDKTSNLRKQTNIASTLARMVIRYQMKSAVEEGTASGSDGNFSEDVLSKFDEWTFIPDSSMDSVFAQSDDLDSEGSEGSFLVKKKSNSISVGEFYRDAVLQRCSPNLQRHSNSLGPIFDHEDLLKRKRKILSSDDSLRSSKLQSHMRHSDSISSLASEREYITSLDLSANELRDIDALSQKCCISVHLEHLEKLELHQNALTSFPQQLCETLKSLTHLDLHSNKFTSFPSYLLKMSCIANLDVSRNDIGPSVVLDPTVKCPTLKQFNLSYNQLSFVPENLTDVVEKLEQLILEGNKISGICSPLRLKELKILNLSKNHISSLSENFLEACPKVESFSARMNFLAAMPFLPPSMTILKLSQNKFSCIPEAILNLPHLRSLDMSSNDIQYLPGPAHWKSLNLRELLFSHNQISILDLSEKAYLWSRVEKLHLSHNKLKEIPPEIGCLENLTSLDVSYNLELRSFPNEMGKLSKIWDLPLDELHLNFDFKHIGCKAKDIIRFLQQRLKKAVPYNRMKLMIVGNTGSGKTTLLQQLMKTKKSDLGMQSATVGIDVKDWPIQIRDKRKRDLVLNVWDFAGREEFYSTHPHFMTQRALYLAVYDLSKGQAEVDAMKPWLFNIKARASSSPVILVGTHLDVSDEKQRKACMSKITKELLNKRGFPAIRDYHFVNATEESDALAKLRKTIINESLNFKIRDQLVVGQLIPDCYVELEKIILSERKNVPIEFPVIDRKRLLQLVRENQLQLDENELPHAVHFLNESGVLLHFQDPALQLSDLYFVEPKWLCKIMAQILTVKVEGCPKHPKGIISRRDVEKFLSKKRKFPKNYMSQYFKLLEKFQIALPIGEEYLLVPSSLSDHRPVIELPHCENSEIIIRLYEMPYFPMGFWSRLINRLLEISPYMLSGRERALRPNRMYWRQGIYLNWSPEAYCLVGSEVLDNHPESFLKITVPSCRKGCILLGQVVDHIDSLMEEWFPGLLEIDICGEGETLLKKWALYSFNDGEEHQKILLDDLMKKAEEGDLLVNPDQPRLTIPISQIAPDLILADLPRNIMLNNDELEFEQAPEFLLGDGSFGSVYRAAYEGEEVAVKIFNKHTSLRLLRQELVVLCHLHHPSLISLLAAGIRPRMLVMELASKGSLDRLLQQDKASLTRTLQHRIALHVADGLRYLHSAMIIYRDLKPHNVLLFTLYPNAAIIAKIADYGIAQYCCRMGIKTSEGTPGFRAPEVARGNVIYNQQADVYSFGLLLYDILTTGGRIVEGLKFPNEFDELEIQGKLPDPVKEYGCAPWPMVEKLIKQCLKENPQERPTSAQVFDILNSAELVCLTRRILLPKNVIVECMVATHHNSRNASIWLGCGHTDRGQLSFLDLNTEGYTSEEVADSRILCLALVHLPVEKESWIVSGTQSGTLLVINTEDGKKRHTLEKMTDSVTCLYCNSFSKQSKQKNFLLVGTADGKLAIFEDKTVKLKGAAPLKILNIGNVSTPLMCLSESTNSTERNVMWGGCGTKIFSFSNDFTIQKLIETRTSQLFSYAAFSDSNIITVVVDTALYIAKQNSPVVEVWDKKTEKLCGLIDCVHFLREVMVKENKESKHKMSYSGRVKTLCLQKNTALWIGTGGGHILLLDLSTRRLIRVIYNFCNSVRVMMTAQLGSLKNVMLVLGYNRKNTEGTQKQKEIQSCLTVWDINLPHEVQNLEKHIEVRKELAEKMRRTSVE
Sequence of various kinases (Homo sapiens, UniProt P42336, E542K) (P42336 whole entry E542K): as the sequence (P42336 whole entry) above, with E542K counted along it

COc1ccc2c(c1)[C@]1(C[C@H]1c1ccc3c(/C=C/c4ccc(CN5C[C@@H](C)O[C@@H](C)C5)cc4)n[nH]c3c1)C(=O)N2 [CFI-400945]
polyploidy (cell cycle analysis) (MON rhabdoid cells): time-dependent induction of polyploidy
FC, delay in reaching confluency (MON MRT cells): 1.56
% Inhibition (various kinases [1]): 58% and 63%
% Inhibition Average (various kinases [2]): 0%
% Inhibition Duplicate #1 (various kinases [2]): 0%
% Inhibition Duplicate #2 (various kinases [2]): 0%
% Inhibition (various kinases [3]): 4% and -2%
% Inhibition (various kinases [4]): 3% and 2%
% Inhibition Average (various kinases [5]): 5%
% Inhibition Duplicate #1 (various kinases [5]): 6%
% Inhibition Duplicate #2 (various kinases [5]): 3%
% Inhibition (various kinases [6]): 6% and 9%
% Inhibition (various kinases [7]): -3% and 4%
% Inhibition (various kinases [8]): -8% and -12%
% Inhibition (various kinases [9]; PIK3CA/PIK3R1 (p110 alpha/p85 alpha)): -9% and -6%
% Inhibition (various kinases [9]; PIK3CA/PIK3R3 (p110 alpha/p55 gamma)): -2% and 6%
% Inhibition (various kinases [10]): 3% and 11%
% Inhibition (various kinases [11]): -13% and -11%
% Inhibition Average (various kinases [12]): -20%
% Inhibition Duplicate #1 (various kinases [12]): -15%
% Inhibition Duplicate #2 (various kinases [12]): -24%
% Inhibition (various kinases [13]): 12% and 7%
% Inhibition (various kinases [14]): 21% and 24%
% Inhibition (various kinases [15]): -2% and -5%
% Inhibition (various kinases [16]; LRRK2): 34% and 26%
% Inhibition (various kinases [16]; LRRK2 FL): 43% and 42%
% Inhibition (various kinases [17]; CDK4/cyclin D1): 10% and 9%
% Inhibition (various kinases [17]; CDK4/cyclin D3): 5% and 8%
% Inhibition Average (various kinases [18]): 8%
% Inhibition Duplicate #1 (various kinases [18]): 8%
% Inhibition Duplicate #2 (various kinases [18]): 8%
% Inhibition Average (various kinases [19]): -12%
% Inhibition Duplicate #1 (various kinases [19]): -11%
% Inhibition Duplicate #2 (various kinases [19]): -14%
